The text below walks through data of patent US10160747B2, “Compounds and methods for kinase modulation, and indications therefor” (Plexxikon Inc., priority 2016, dated 2018).

Each structure is given as a SMILES string.

For the test, the target named is T1, BA/F3-FLT3-ITD + D835Y (Homo sapiens, UniProt P36888, D835Y, cells depend on it, form not given).
T1 sequence (P36888 with tags, fused parts or gaps INS600HVDFREYEYD/D835Y): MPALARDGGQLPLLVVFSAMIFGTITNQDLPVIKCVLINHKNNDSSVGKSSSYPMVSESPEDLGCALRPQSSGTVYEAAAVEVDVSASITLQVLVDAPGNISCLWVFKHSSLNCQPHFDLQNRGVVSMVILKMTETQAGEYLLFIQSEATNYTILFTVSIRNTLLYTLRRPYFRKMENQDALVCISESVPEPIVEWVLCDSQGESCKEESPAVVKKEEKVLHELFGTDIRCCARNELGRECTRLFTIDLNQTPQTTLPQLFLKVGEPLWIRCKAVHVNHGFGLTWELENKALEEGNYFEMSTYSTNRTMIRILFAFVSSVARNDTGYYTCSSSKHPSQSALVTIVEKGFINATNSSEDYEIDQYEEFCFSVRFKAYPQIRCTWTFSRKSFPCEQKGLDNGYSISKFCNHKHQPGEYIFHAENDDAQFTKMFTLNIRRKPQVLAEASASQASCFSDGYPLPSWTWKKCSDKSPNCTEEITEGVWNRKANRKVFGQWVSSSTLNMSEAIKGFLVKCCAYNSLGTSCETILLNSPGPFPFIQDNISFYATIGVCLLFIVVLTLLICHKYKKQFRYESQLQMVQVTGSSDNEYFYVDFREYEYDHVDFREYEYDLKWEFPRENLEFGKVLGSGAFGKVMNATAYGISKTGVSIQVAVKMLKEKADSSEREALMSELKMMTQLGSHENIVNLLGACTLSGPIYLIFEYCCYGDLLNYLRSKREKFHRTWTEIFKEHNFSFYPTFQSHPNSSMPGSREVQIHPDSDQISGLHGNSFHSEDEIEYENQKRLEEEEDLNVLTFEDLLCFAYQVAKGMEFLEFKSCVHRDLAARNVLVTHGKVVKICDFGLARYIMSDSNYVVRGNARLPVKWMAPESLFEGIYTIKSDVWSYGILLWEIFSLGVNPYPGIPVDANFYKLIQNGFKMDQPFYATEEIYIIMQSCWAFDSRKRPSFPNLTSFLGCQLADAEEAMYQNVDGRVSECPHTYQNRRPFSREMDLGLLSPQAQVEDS
Kind of test: Engineered BA/F3 cell growth assay, FLT3 ITD/D835Y. It is filed as cell-based, murine. The note with it: 3 d growth. The essentials: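 IC50 derived from CellTiter-Glo ATP luminescence after 3 days at 37 °C, 5% CO2, over eight 1:3 dilutions from 1 μM (0.2% DMSO final). Cells: IL-3-independent murine Ba/F3 expressing full-length FLT3 ITD/D835Y, 1×10^4 per well.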

As usually defined, the GI50 is the concentration at which growth is held to half of that of the control.

As for `COc1ncc(NC(=O)Cc2ccc(-c3cnc4[nH]c(C#CC(C)(C)O)cc4c3)cc2)cc1C(F)(F)F` [Compound P-0214, 2-(4-(2-(3-hydroxy-3-methylbut-1-yn-1-yl)-1H-pyrrolo[2,3-b]pyridin-5-yl)phenyl)-N-(6-methoxy-5-(trifluoromethyl)pyridin-3-yl)acetamide], the GI50 lay within 0.0001 to 10 µM.

As to `Cc1ncc(NC(=O)Cc2ccc(-c3cnc(Nc4cnn(C5CC5)c4)nc3)cc2F)cc1C(F)(F)F` [Compound P-0239, 2-[4-[2-[(1-cyclopropylpyrazol-4-yl)amino]pyrimidin-5-yl]-2-fluoro-phenyl]-N-[6-methyl-5-(trifluoromethyl)-3-pyridyl]acetamide], the GI50 is 0.0001 to 10 µM.

As for `O=C(Cc1cc(F)c(-c2cnc(Nc3cnn(C(F)F)c3)nc2)cc1F)Nc1cc(C(F)(F)F)ccn1` [Compound P-0021, 2-[4-[2-[[1-(difluoromethyl)pyrazol-4-yl]amino]pyrimidin-5-yl]-2,5-difluoro-phenyl]-N-[4-(trifluoromethyl)-2-pyridyl]acetamide], the GI50 is 0.0001 to 10 µM.

In the case of `COc1ncc(NC(=O)Cc2ccc(-c3cnc(Nc4cnn(C(F)F)c4)nc3)cc2)cc1C(F)(F)F` [Compound P-0211, 2-[4-[2-[[1-(difluoromethyl)pyrazol-4-yl]amino]pyrimidin-5-yl]phenyl]-N-[6-methoxy-5-(trifluoromethyl)-3-pyridyl]acetamide], the GI50 fell in the range of 0.0001 to 10 µM.

As for `CCn1cc(Nc2ncc(-c3ccc(CC(=O)Nc4ccc(C(F)(F)F)nc4)cc3)cn2)cn1` [Compound P-0252, 2-[4-[2-[(1-ethylpyrazol-4-yl)amino]pyrimidin-5-yl]phenyl]-N-[6-(trifluoromethyl)-3-pyridyl]acetamide], the 50% growth inhibitory concentration (GI50) was in the range of 0.0001 to 10 µM.

For `COCCn1cc(Nc2ncc(-c3ccc(CC(=O)Nc4cnc(Cl)c(C(F)(F)F)c4)c(F)c3)cn2)cn1` [Compound P-0266, N-[6-chloro-5-(trifluoromethyl)-3-pyridyl]-2-[2-fluoro-4-[2-[[1-(2-methoxyethyl)pyrazol-4-yl]amino]pyrimidin-5-yl]phenyl]acetamide], the GI50 fell in the range of 0.0001 to 10 µM.
